Data on one molecule can be found in US20260376293A1, “METHODS FOR STUDYING GPR158 PHARMACOLOGY AND IDENTIFICATION OF ITS LIGANDS” (UNIVERSITY OF FLORIDA RESEARCH FOUNDATION, INCORPORATED, priority 2022, published 2026).

In the assay the target is T1, GPR158 (Homo sapiens, UniProt Q5T848).
T1 construct: GPR158 AC2 (1-775) was expressed and purified; Flag; made in house; host or cells: HEK293 GnTI- (BacMam virus)
T1 sequence (Q5T848 24-775): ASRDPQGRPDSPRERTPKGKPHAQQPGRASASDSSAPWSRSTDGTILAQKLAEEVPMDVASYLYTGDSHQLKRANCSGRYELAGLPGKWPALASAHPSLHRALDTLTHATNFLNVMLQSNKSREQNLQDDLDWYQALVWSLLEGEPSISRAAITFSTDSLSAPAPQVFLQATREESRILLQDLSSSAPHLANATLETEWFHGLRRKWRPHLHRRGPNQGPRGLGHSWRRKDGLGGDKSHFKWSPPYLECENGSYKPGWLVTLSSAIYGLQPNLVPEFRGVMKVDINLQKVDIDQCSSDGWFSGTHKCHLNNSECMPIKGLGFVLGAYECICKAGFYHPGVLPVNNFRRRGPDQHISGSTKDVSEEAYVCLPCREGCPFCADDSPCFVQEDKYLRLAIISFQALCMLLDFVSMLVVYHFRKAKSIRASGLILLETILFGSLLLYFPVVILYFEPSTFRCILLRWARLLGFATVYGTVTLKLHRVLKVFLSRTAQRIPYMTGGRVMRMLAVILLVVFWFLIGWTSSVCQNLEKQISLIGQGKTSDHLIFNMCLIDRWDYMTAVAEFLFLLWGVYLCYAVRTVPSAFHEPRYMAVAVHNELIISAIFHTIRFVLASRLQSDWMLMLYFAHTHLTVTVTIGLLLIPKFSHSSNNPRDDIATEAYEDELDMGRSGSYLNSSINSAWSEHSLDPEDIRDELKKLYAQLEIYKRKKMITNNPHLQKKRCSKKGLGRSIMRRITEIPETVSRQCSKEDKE
The assay can be described thus: Isothermal Titration calorimetry (ITC) with purified GPR158. It counts as binding. To be noted: purified GPR158-AC2, 23 °C. How it is done:
FIGS. 9A-9H. Direct interaction of glycine with GPR158 A) Schematics of assay design for detecting glycine binding to GPR158 by flow cytometry. Cells transfected with GPR158 are incubated with FITC-glycine and fluorescence labeling of cells is detected by flow cytometry. B) Representative flow cytometry histogram showing distribution of cellular populations after sorting. C) Quantification of FITC-glycine binding detected in flow cytometry binding experiments. The median of fluorescence (MFI) is quantified and plotted. Error bars are s.e.m. values, N=3, **p<0.01, ****p<0.0001, two-way ANOVA. D) Schematics of the radioligand binding assay. E) Quantification of ^3H-glycine binding to membrane expressing GPR158. Count Per minute (CPM) are measured and plotted. Data shown mean of 4 independent experiments error bars are s.e.m. values, n=4. […] Data shown mean of 4 independent experiments error bars are s.e.m. values, n=4. G) Schematics of the assay design detecting glycine binding to GPR158 by Isothermal Titration calorimetry (ITC) with purified protein. H) Representative ITC binding profile showing glycine binding to GPR158. Control (thick line), GPR158 (thin line) I) Quantification of binding determined by fitting the integrated isotherm to an independent binding model.
FIGS. 10A-10D. Binding of Glycine to GPR158 in ITC experiments. […]
For orientation: ITC needs no label: the signal is the heat of the interaction.

Read-outs that look alike come from different tables or passages of the source.

The term Kd denotes a measure of binding affinity in units of concentration. Take `NCC(=O)O` [glycine]: the Kd (mean of 4 experimental runs, independent binding model, read-out: KD (ITC, mean)) came to 7.76 ± 3.66 µM and the equilibrium dissociation constant (Kd) (range across experiments, read-out: binding constants (KD) across experiments) is 2 to 16 µM.
